US20230365559A1, “NOVEL AMINOPYRIDINES AND THEIR USE IN TREATING CANCER” (priority 2020, published 2023)

Legend:
Ser2056 of DNA-PKcs = Ser2056 of DNA-PKcs (Homo sapiens, UniProt P78527); assay: Inhibition of cellular autophosphorylation at Ser2056 of DNA-PKcs in UT-SCC-54C cells, western immunoblotting; type: cell-based; conditions: oxia, 10 Gy, FIG. 7 (10 μM)
[1] = target: T1, Ser1981 of ataxia-telangiectasia mutated (ATM) (Homo sapiens, UniProt Q13315); assay: Inhibition of phosphorylation of Ser1981 of ATM in UT-SCC-54C cells, western immunoblotting; type: cell-based; conditions: oxia, 10 Gy, FIG. 7 (10 μM)
T1 construct: Ser1981 of ataxia-telangiectasia mutated (ATM) in UT-SCC-54C cells

ATR/ATRIP = ATR/ATRIP (Homo sapiens, UniProt Q13535); assay: ATR/ATRIP Human PIKK Kinase Enzymatic Radiometric Assay, KinaseProfiler (Eurofins Discovery); type: biochemical; conditions: Km ATP, Table 15, read-out: Inhibition of PIKK kinase activity ATR
[2] = system: UT-SCC-54C tumour xenografts; assay: Radiosensitisation of UT-SCC-54C HNSCC tumours, ex vivo clonogenic assay of tumour xenografts; type: in vivo, female NIH-III mice
UT-SCC-54C cells [3] = assay: Radiosensitisation of UT-SCC-54C HNSCC cells, clonogenic survival, oxic and anoxic (Table 18); type: cell-based, human
UT-SCC-54C cells [4] = assay: Radiosensitisation of UT-SCC-54C HNSCC cells, regrowth (sulforhodamine B) assay, oxic (Table 16); type: cell-based, human; conditions: compound in combination with 3 Gy of radiation; 50% inhibition of regrowth fraction; UT-SCC-54C, oxic
HAP1 cells = assay: Radiosensitisation of HAP1 wild type cells, regrowth assay; type: cell-based, human
[5] = system: UT-SCC-54C tumour xenografts; assay: Inhibition of UT-SCC-54C tumour growth, tumour xenograft study; type: in vivo, female NIH-III mice

T1 sequence (Q13315 whole entry, change not shown): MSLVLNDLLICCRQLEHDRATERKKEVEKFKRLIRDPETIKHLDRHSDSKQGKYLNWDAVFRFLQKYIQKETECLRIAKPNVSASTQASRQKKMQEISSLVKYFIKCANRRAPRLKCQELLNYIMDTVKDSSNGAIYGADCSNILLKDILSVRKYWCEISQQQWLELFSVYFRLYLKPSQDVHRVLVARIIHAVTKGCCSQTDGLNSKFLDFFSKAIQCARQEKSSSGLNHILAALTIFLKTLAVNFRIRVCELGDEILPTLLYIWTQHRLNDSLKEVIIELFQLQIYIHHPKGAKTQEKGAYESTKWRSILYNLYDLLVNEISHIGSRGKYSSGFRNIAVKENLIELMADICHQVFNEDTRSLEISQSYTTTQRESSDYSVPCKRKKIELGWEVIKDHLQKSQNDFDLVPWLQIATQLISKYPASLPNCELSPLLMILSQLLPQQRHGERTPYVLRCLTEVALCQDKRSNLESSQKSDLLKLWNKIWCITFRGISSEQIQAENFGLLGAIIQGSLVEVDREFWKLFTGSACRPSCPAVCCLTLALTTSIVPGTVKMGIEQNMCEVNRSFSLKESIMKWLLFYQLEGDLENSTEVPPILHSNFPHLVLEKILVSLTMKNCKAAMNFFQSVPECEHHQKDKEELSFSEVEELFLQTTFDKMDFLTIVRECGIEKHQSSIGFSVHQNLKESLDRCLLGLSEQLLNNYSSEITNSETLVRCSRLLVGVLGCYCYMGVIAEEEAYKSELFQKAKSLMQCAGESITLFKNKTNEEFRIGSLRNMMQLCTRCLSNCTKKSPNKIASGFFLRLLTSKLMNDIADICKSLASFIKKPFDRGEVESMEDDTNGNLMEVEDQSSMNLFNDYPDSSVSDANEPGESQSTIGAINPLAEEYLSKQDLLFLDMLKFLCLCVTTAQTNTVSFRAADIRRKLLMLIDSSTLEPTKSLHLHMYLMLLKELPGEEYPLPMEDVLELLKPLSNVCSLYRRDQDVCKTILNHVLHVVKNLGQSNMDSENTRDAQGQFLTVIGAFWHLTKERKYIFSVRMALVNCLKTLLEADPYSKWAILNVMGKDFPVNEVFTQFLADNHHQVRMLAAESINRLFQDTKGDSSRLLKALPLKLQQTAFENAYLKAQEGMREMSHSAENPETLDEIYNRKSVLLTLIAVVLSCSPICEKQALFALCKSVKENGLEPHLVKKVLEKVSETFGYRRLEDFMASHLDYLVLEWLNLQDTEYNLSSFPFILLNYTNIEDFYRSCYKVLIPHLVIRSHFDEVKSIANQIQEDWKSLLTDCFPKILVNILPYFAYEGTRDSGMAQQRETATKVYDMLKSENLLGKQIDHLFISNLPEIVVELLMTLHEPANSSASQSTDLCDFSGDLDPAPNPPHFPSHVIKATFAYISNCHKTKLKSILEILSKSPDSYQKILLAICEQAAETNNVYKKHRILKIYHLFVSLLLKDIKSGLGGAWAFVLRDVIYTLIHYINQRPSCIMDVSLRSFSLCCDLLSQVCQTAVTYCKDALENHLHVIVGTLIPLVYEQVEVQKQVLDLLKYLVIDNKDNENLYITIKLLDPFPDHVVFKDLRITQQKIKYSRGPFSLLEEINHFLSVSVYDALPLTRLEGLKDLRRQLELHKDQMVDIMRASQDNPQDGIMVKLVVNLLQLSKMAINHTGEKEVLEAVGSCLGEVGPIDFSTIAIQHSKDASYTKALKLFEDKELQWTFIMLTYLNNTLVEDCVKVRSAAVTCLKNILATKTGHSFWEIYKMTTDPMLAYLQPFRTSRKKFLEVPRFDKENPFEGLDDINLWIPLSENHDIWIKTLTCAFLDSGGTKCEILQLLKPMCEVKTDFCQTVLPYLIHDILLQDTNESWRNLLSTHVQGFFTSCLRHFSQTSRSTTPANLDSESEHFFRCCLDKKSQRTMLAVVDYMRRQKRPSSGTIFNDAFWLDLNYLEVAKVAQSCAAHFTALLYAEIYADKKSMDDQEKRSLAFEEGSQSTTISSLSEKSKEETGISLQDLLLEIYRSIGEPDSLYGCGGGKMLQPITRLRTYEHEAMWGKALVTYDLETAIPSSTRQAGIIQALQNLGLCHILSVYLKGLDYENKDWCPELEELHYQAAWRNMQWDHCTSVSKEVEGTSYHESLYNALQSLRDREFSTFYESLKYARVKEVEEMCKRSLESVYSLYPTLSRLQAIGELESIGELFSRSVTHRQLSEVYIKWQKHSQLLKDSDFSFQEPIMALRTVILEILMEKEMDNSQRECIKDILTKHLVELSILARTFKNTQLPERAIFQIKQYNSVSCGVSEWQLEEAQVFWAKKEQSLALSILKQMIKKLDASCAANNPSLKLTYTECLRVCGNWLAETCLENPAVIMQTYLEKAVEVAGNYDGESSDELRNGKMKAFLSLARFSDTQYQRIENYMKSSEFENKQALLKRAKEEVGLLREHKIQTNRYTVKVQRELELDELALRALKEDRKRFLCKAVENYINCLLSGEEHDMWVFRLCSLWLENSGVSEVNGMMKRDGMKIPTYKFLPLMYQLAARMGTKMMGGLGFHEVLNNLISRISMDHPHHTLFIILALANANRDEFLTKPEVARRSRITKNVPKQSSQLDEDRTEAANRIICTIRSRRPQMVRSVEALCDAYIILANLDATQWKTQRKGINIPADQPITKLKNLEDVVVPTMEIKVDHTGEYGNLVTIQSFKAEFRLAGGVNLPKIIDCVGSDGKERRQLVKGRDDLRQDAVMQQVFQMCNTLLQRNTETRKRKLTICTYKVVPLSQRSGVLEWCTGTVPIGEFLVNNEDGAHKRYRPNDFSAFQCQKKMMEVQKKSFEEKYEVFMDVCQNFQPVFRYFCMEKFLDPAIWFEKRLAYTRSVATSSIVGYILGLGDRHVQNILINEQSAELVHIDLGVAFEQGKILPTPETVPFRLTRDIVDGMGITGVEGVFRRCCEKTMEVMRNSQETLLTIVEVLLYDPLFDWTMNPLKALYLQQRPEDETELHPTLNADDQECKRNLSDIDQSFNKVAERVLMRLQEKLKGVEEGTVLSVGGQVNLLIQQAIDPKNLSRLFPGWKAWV

SMILES	inhibition of Ser2056 on DNA-PKcs (Ser2056 of DNA-PKcs)	inhibition of phosphorylation of Ser1981 on ATM [1]	IC50 (ATR/ATRIP) [µM]	reduction in clonogens/gram of tumour, compound with radiation compared to radiation alone ([2]; IP 50 mg/kg 15 min before and 6 h after 13 Gy whole-body irradiation)	reduction in clonogens/gram of tumour tissue, compound alone ([2]; IP 2 x 50 mg/kg, no radiation, compared to DMSO control)	D1 (radiation dose for 1% surviving fraction) (UT-SCC-54C cells [3]; 0% O2, compound conc 1 μM) [Gy]	D10 (radiation dose for 10% surviving fraction) (UT-SCC-54C cells [3]; 0% O2, compound conc 1 μM) [Gy]	D1 (radiation dose for 1% surviving fraction) (UT-SCC-54C cells [3]; 20% O2, compound conc 0.33 μM) [Gy]	D10 (radiation dose for 10% surviving fraction) (UT-SCC-54C cells [3]; 20% O2, compound conc 0.33 μM) [Gy]	D10 (radiation dose for 10% surviving fraction) (UT-SCC-54C cells [3]; 20% O2, compound conc 1 μM) [Gy]	D1 (radiation dose for 1% surviving fraction) (UT-SCC-54C cells [3]; 20% O2, compound conc 3 μM) [Gy]	D10 (radiation dose for 10% surviving fraction) (UT-SCC-54C cells [3]; 20% O2, compound conc 3 μM) [Gy]	radiosensitisation, clonogenic survival endpoint (UT-SCC-54C cells [3]; UT-SCC-54C, FIG. 8 and Table 18)	radiosensitisation of UT-SCC-54C cells under oxic conditions (UT-SCC-54C cells [3]; oxic, clonogenic survival, FIG. 9)	S50 (UT-SCC-54C cells [4]) [µM]	effect in unirradiated HAP1 cells (HAP1 cells; 0 Gy)	radiosensitisation / differential growth inhibition of HAP1 cells (HAP1 cells; 3 Gy cobalt-60 gamma irradiation relative to radiation-only)	tumour growth inhibition in combination with radiation compared to radiation alone ([5]; PO 2×100 mg/kg, 10 Gy (P=0.007))	tumour growth inhibition in combination with radiation compared to radiation alone ([5]; PO 2×400 mg/kg, 10 Gy (P=0.03))	tumour growth inhibition, compound alone ([5]; PO, compared to DMSO control, FIG. 12A)
CC(C)n1c(=O)n(C)c2cnc3cc(F)c(-c4ccc(OCCCN5CCCCC5)nc4)cc3c21 [AZD1393, reference compound]	did not affect	inhibited	–	–	–	–	–	–	–	–	–	–	–	–	–	–	–	–	–	–
COc1ccc(Nc2cc3c(cn2)n(C)c(=O)n3C2CCOCC2)c(C)c1 [Compound 121, 6-((4-Methoxy-2-methylphenyl)amino)-3-methyl-1-(tetrahydro-2H-pyran-4-yl)-1,3-dihydro-2H-imidazo[4,5-c]pyridin-2-one]	–	–	> 100	significant (p=0.005) additional reduction	no reduction	11.7	6.18	1.29	4.63	2.65	3.44	1.73	concentration-dependent increases in radiosensitisation	provides radiosensitisation	0.34	little effect	concentration-dependent radiosensitisation	significant tumour growth inhibition	significant tumour growth inhibition	little additional tumour growth inhibition
